Assay results published in BindingDB's records for doi:10.1016/j.chembiol.2014.09.011 (Astrazeneca R&D, 2014).

How the values were obtained:
Test in all cases: AMPD Enzymatic Activity Assay
Conditions in all cases: pH 7.4
AMP deaminase 1 [1] = target: T1, AMP deaminase 1 (Homo sapiens, UniProt P23109)
T1 sequence (P23109 whole entry): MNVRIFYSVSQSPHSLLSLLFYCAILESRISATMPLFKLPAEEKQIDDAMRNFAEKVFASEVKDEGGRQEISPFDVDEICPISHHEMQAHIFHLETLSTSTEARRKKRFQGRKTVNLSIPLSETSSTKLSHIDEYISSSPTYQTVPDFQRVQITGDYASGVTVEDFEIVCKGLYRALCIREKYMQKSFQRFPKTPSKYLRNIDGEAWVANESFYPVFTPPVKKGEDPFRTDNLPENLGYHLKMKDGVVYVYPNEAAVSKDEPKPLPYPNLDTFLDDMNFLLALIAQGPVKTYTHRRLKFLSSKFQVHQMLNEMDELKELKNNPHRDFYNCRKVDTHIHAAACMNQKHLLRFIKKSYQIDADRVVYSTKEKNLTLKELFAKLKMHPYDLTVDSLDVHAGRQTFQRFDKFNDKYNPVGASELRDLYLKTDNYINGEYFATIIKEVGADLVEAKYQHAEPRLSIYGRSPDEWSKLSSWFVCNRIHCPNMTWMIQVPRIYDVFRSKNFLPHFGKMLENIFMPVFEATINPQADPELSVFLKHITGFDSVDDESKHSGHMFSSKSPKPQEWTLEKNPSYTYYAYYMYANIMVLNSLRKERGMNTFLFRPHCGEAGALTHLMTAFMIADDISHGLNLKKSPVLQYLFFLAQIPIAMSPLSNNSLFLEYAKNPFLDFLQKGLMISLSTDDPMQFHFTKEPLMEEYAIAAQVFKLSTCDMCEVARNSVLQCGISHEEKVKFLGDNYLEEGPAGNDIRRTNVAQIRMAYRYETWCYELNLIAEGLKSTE
Procedure: (§1) AMPD1 was added to buffer A (50 mM HEPES, 150 mM KCl, 5 mM MgCl2, and 0.5 mMglutathione [pH 7.4]) to a concentration of 10 nM. A substrate mix consistingof 2mMNADPH, 6mMa-ketoglutarate, 8mMAMP, and 15 U GDH was prepared in buffer A. Substrate mix ([…]) was added to the plate, followed by centrifugation and incubation for 1 hr. Detection was by absorbance at 340 nm following the conversion of NADPH to NADP+. Recombinant AMPD enzyme activity assays were performed in a 384-well format using the same conditions as described above, except the assay volume was […] and the AMP concentration for the AMPD2 assay was 8 mM. Different AMPD enzyme concentrations were used to have linear reactions: hAMPD1 (4 nM), hAMPD2 (38 nM), hAMPD3 (1 nM), rAMPD1 (116 nM), rAMPD2 (53 nM), rAMPD3 (31 nM), and mAMPD1 (816 nM).

AMP deaminase 1 [2] = target: T2, AMP deaminase 1 (Mus musculus, UniProt Q3V1D3)
T2 sequence (Q3V1D3 whole entry): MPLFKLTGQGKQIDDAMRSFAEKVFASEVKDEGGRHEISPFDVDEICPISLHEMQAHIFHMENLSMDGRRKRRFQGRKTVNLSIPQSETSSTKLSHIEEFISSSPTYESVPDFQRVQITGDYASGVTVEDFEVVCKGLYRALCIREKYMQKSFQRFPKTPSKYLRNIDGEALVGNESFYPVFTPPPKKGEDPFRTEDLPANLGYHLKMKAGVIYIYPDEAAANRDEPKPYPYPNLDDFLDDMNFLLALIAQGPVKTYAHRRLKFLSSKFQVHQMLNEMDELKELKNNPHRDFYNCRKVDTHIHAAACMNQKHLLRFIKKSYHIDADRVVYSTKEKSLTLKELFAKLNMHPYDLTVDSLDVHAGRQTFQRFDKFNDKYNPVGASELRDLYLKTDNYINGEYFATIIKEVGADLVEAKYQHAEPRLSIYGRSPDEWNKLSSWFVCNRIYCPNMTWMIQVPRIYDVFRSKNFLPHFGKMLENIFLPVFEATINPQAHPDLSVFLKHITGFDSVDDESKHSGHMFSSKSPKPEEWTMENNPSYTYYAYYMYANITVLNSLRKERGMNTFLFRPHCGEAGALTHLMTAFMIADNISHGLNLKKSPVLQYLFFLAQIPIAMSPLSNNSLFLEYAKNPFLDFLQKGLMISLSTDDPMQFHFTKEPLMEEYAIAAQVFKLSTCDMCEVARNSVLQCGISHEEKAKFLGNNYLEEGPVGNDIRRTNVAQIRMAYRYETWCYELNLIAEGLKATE
Procedure: as §1

AMP deaminase 1 [3] = target: T3, AMP deaminase 1 (Rattus norvegicus, UniProt P10759)
T3 sequence (P10759 whole entry): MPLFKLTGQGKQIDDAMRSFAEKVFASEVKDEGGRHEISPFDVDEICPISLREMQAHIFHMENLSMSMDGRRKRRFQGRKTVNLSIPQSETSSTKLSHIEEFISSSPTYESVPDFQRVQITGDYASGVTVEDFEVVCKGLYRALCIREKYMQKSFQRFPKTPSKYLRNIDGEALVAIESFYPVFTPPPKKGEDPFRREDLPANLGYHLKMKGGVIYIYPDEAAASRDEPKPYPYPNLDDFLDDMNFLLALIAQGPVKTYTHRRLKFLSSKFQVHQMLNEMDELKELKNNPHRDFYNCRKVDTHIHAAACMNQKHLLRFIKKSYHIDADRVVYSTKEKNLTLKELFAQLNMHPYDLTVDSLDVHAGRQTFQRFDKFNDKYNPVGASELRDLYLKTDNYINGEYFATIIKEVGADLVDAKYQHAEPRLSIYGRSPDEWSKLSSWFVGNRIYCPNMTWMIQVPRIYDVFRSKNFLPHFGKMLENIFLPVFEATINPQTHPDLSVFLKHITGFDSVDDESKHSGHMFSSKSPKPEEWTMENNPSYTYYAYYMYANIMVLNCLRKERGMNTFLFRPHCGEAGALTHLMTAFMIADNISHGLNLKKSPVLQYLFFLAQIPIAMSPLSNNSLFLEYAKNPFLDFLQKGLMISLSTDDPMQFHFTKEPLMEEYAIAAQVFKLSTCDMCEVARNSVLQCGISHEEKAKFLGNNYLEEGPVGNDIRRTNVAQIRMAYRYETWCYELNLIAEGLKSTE
Procedure: as §1

AMP deaminase 2 = target: T4, AMP deaminase 2 (Rattus norvegicus, UniProt Q02356)
T4 sequence (Q02356 whole entry): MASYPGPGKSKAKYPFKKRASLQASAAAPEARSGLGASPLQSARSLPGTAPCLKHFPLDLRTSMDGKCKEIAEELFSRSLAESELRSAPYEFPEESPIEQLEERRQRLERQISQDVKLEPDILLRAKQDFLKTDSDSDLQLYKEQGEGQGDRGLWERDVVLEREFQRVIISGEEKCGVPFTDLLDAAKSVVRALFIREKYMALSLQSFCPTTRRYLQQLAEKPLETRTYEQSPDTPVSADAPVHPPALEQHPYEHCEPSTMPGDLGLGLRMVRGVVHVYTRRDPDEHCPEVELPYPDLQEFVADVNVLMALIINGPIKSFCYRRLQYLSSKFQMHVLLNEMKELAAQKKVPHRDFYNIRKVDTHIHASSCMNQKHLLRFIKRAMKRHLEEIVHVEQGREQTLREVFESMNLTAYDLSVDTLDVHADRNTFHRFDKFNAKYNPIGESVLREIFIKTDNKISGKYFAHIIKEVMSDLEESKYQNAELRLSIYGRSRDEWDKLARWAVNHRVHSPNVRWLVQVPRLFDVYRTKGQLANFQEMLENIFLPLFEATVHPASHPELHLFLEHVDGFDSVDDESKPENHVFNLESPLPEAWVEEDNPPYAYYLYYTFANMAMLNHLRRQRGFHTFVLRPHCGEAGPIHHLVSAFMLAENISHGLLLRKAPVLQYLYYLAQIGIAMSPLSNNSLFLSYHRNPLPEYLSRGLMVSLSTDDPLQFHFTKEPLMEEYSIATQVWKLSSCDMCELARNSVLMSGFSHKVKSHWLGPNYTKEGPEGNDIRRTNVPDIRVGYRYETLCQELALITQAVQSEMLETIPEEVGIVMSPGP
Procedure: as §1

IC50 (AMP deaminase 1 [1]) [nM]	IC50 (AMP deaminase 1 [2]) [nM]	IC50 (AMP deaminase 1 [3]) [nM]	IC50 (AMP deaminase 2) [nM]	SMILES
620	–	–	–	C[C@@H](NCc1ccc(-c2ccc(C(=O)O)cn2)cc1)c1cccc2ccccc12 [6-[4-({[(1R)-1-(naphthalen-1-yl)ethyl]amino}methyl)phenyl]pyridine-3-carboxylic acid (Compound 1)]
24	20	20	300	COc1cc(-c2ccc(CN[C@H](C)c3cccc4ccncc34)cc2)ccc1C(=O)O [4-[4-({[(1R)-1-(isoquinolin-8-yl)ethyl]amino}methyl)phenyl]-2-methoxybenzoic acid (Compound 4)]
